From ChEMBL document CHEMBL1201862, “PubChem BioAssay data set” (2004)
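A five-concentration, 48-hour dose response in 96-well plates underlies each endpoint, interpolated linearly between surrounding concentrations. Here, GI50 denotes the concentration required for 50% inhibition of growth.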 Activity calls are given as the source filed them. Cut-off read from the data, not from the text of the source: active = GI50 up to about 1.1 µM and inactive = higher.

How the values were obtained:
Assay in all cases: NCI tumour cell line growth inhibition, 48 h
LXFL 529 = tested on: LXFL 529
DMS-273 = tested on: DMS-273
XF498 = tested on: XF498
M19-MEL = tested on: M19-MEL
HOP-18 = tested on: HOP-18
DLD-1 = tested on: DLD-1
RXF 631 = tested on: RXF 631
MDA-N = tested on: MDA-N

| Compound | GI50 (LXFL 529) | GI50 (DMS-273) | GI50 (XF498) | GI50 (M19-MEL) | GI50 (HOP-18) | GI50 (DLD-1) | GI50 (RXF 631) | GI50 (MDA-N) |
| --- | --- | --- | --- | --- | --- | --- | --- | --- |
| O=c1[nH]c2cc(-c3ccccc3)nc-2nn1-c1c(Cl)cc(Cl)cc1Cl | 30.5 µM (inactive) | 37.3 µM (inactive) | 27.9 µM (inactive) | 22.8 µM (inactive) | 18.8 µM (inactive) | 37.5 µM (inactive) | 46 µM (inactive) | – |
| C[C@]12CC[C@H](OC(=O)Nc3ccccc3)CC1=CC[C@@H]1C2CC[C@]2(C)/C(=N/OC(=O)Nc3ccccc3)CCC12 (some centres not stated) | 1.12 µM (inactive) | 37.3 µM (inactive) | 1.75 µM (inactive) | > 100 µM (inactive) | 2.4 µM (inactive) | – | 6.37 µM (inactive) | – |
| COCCCNC(=O)C1C(=O)C(=O)N(CCCOC)C1=O (configuration not stated) | > 100 µM (inactive) | > 100 µM (inactive) | – | > 100 µM (inactive) | > 100 µM (inactive) | > 100 µM (inactive) | > 100 µM (inactive) | – |
| CC(=O)NC(CCCCN(Cc1ccccc1)C(=O)N(C)N=O)C(=O)NCc1ccccc1 (configuration not stated) | 51.5 µM (inactive) | 97.3 µM (inactive) | > 100 µM (inactive) | > 100 µM (inactive) | – | > 100 µM (inactive) | > 100 µM (inactive) | – |
| COC(=O)Cc1nn2c(nc1=O)sc1ccc3ccccc3c12 | > 100 µM (inactive) | – | – | > 100 µM (inactive) | > 100 µM (inactive) | > 100 µM (inactive) | 91.6 µM (inactive) | – |
| COC1(OC)CC2C=C(S(=O)(=O)c3ccccc3)C1N(Cc1ccccc1)C2=O (configuration not stated) | 20.3 µM (inactive) | – | 19.1 µM (inactive) | 32.4 µM (inactive) | > 100 µM (inactive) | 24.3 µM (inactive) | 26.3 µM (inactive) | – |
| CCc1cccc(C(C)C)c1NC(=O)C(=O)C(CC(=O)Nc1ccc(Cl)c(Cl)c1)C(=O)OC (configuration not stated) | – | 49.4 µM (inactive) | > 100 µM (inactive) | 52.5 µM (inactive) | 99.5 µM (inactive) | 31 µM (inactive) | > 100 µM (inactive) | – |
| COc1ccc(/C=c2\sc3nnc(CCC(=O)Nc4cccc(C(F)(F)F)c4)n3c2=O)cc1 | > 87.1 µM (inactive) | > 100 µM (inactive) | > 100 µM (inactive) | > 84.1 µM (inactive) | 50.4 µM (inactive) | > 100 µM (inactive) | > 100 µM (inactive) | – |
| Cc1ccc([Se][Se]c2ccc(C)cc2)cc1 | 4.76 µM (inactive) | 16.4 µM (inactive) | 12.7 µM (inactive) | 13.7 µM (inactive) | 6.46 µM (inactive) | 17.7 µM (inactive) | 21.9 µM (inactive) | – |
| N=C(N)N/N=C(/CC1OC(=O)c2ccccc21)c1ccc2ccccc2c1 (configuration not stated) | 14.6 µM (inactive) | 21.6 µM (inactive) | 7.71 µM (inactive) | 16.2 µM (inactive) | 18.5 µM (inactive) | 14 µM (inactive) | 21.4 µM (inactive) | – |
| COc1ccc(C2c3cc4c(cc3OC(O)(CO)C2C(=O)O)OCO4)cc1.COc1ccc(C2c3cc4c(cc3OC3(O)COC(=O)C23)OCO4)cc1 (configuration not stated) | 15.6 µM (inactive) | 4.14 µM (inactive) | 0.536 µM (active) | 4.6 µM (inactive) | 50.4 µM (inactive) | 21.8 µM (inactive) | 19.5 µM (inactive) | – |
| C[C@]12Cc3cn[nH]c3C(=O)C1CC[C@@H]1C2CC[C@@]2(C)C1CC[C@]2(C)O (some centres not stated) | > 100 µM (inactive) | > 100 µM (inactive) | > 100 µM (inactive) | > 100 µM (inactive) | > 100 µM (inactive) | > 100 µM (inactive) | > 100 µM (inactive) | – |
| CC(O)C(NC(=O)C(CS)NC(=O)C(CO)NC(=O)C(CCCCN)NC(=O)C(Cc1c[nH]c2ccccc12)NC(=O)C(Cc1ccc(O)cc1)NC(=O)C(CS)NC(=O)C(N)Cc1ccccc1)C(N)=O (configuration not stated) | – | 20.9 µM (inactive) | 21.6 µM (inactive) | 26 µM (inactive) | 22.6 µM (inactive) | 22.1 µM (inactive) | 19.1 µM (inactive) | > 25 µM (inactive) |
| O=C(Cc1nc2ccccc2o1)C(=O)Nc1cccc(C(F)(F)F)c1 | > 100 µM (inactive) | > 100 µM (inactive) | – | > 100 µM (inactive) | 45 µM (inactive) | > 100 µM (inactive) | > 100 µM (inactive) | – |
| CC[C@@H](C(=O)[C@@H](C)[C@@H](O)[C@H](C)CCc1ccc(C)c(O)c1C(=O)O)[C@H]1O[C@](CC)([C@H]2CC[C@](O)(CC)[C@H](C)O2)C[C@@H]1C [LASALOCID A SODIUM] | 1.18 µM (inactive) | 1.71 µM (inactive) | 1.25 µM (inactive) | 1.65 µM (inactive) | 3.08 µM (inactive) | 3.61 µM (inactive) | 0.741 µM (active) | – |
